Results taken from patent US20230227477A1, “COMPOUNDS FOR SENSING REACTIVE OXYGEN SPECIES AND METHODS FOR USING THE SAME” (WAKE FOREST UNIVERSITY HEALTH SCIENCES, priority 2020, published 2023).

Tests used:
[1] = Selectivity screen of compound RAH2115 against oxidants, reductants, nucleophiles and salts (turn-on fluorescence); assay type: physicochemical; conditions: RAH2115 10 μM
Description: Given the longer excitation and emission profile of resorufin, it was hypothesized that compound RAH2115 would provide a better gauge of the overall selectivity and sensitivity of the scaffold towards H2O2 while confirming its potential applications within a biological setting. The high selectivity the scaffold towards H2O2 was confirmed by thoroughly screening compound RAH2115 against various oxidants, reductants, and nucleophiles in PBS buffer (pH 7.4) and measuring the resulting turn-on fluorescence after a 2 h incubation period (See FIG. 4, Graph A).
[…] Next, 1.080 mL of a freshly prepared 111.1 μM compound RAH2115 stock solution was added to 10.80 mL of 1× PBS buffer (pH 7.4) to give a total volume of 11.88 mL. 120 μL of analyte stock solution (PBS buffer alone, hydrogen peroxide, glutathione, glutathione disulfide, sodium nitrite, L-cysteine, L-lysine, L-serine, sodium chloride, sodium bromide, L-homocysteine, sodium sulfide, sodium sulfate, sodium thiosulfate and sodium hypochlorite) was then added to give a final volume of 12 mL, and each reaction was left to stir at 37° C.

[2] = Initial rates of fluorescence intensity of compound RAH2115 vs H2O2 concentration; detection limit; assay type: physicochemical; conditions: Detection Limit=3σ/κ, slope from FIG. 4 Graph B
Description: The initial response rate of compound RAH2115 was also verified to be directly proportional to the concentration of H2O2. Specifically, immediately prior to use, 5 mM and 0.5 mM stock solutions of hydrogen peroxide were prepared in freshly degassed 1× PBS buffer (pH 7.4) using reagent grade H2O2 (30%). A 100 μM stock solution of compound RAH2115 was prepared in 200-proof ethanol. […] The plate was inserted into a 96-well plate reader (BioTek SYNERGY-HTX hybrid multi-mode reader, Winooski, Vt.) heated to 37° C., and agitated to ensure homogeneity. Fluorescence measurements were recorded and plotted as the change in initial rates of fluorescence intensity vs hydrogen peroxide concentration. This assay was repeated in triplicate and recorded as the mean+/−STDEV from three experiments.
This finding was deemed to be of great significance as the rate of payload release from the scaffold could then be tuned by varying the amount of H2O2. In addition, this finding also allowed for reaction-based fluorescent probes based off of this design (i.e., compound RAH2115) to be used to accurately quantify the amount of H2O2 in buffered solutions. Indeed, as depicted in FIG. 4, Graph B, when the initial rates of increasing fluorescence intensity of compound RAH2115 were plotted versus hydrogen peroxide concentration, excellent linearity between 0-1 mM was observed (R^2=0.99). […]

HeLa cells = assay: Imaging hydrogen peroxide in living HeLa cells with compound RAH2115 (confocal); assay type: cell-based, human; conditions: ex: 561 nm, em: 587 nm
Description: HeLa (human cervical cancer) cells were grown and maintained appropriately according to the American Type Culture Collection (Manassas, Va.). Dulbecco's Modified Eagle Medium:F12-K (1:1) was supplemented with 10% fetal bovine serum (FBS), 1% penicillin-streptomycin, and 1% L-glutamine (ThermoFisher). Cells were incubated at 37° C. in a 5% CO2 atmosphere and split at 70-80% confluency every 2-3 days.
At 70-80% confluency, HeLa cells were seeded on two 35 mm glass-bottom round plates (MatTek Corporation, Ashland, Mass.) at a density of 200 k cells/mL. After adhering overnight, FBS-free media was aspirated and cells were washed with phosphate buffered saline (1×, pH 7.4). Cells in one dish were then incubated with 10 mM Paraquat (Methyl Viologen) for 4 h. Afterwards, both dishes were washed and incubated with compound RAH2115 (10 μM) for 1 hour. After a final PBS wash, both plates were rehydrated in phenol red-free media for imaging. Both control (absence of paraquat) and experimental (presence of paraquat) plates were imaged: ex: 561 nm, em: 587 nm. […]
An automated cell selection algorithm within the ImageJ software was used to quantify intracellular fluorescence. Cells from both control and experimental groups were subjected to Gaussian smoothing in order to accurately measure fluorescence within cells based on a minimum threshold against background. […]

CC(C)(Cc1ccccc1B1OC(C)(C)C(C)(C)O1)C(=O)Oc1ccc2nc3ccc(=O)cc-3oc2c1 [compound RAH2115]
increase in relative fluorescence intensity when co-incubated with H2O2 ([1]; 1 mM H2O2, 2 h, vs PBS buffer alone): ~500 fold
increase in fluorescence intensity in the presence of other oxidants, reductants, nucleophiles and salts (in words) ([1]; 2 h, PBS pH 7.4, 37° C.): negligible
fluorescence (ex: 560 nm, em: 585 nm) ([1]; PBS pH 7.4, 37° C., 2 h, (1) PBS Buffer alone): 1.7+/−0.32
fluorescence (ex: 560 nm, em: 585 nm) ([1]; PBS pH 7.4, 37° C., 2 h, (2) 1 mM H2O2): 812.25+/−89.32
fluorescence (ex: 560 nm, em: 585 nm) ([1]; PBS pH 7.4, 37° C., 2 h, (3) 1 mM glutathione): 43.65+/−4.24
fluorescence (ex: 560 nm, em: 585 nm) ([1]; PBS pH 7.4, 37° C., 2 h, (4) 1 mM glutathione disulfide): 29.87+/−0.96
fluorescence (ex: 560 nm, em: 585 nm) ([1]; PBS pH 7.4, 37° C., 2 h, (5) 1 mM NaNO2): 47.10+/−11.06
fluorescence (ex: 560 nm, em: 585 nm) ([1]; PBS pH 7.4, 37° C., 2 h, (6) 1 mM L-cysteine): 2.63+/−0.13
fluorescence (ex: 560 nm, em: 585 nm) ([1]; PBS pH 7.4, 37° C., 2 h, (7) 1 mM L-lysine): 3.31+/−0.61
fluorescence (ex: 560 nm, em: 585 nm) ([1]; PBS pH 7.4, 37° C., 2 h, (8) 1 mM L-serine): 1.70+/−0.13
fluorescence (ex: 560 nm, em: 585 nm) ([1]; PBS pH 7.4, 37° C., 2 h, (9) 1 mM NaCl): 40.71+/−1.33
fluorescence (ex: 560 nm, em: 585 nm) ([1]; PBS pH 7.4, 37° C., 2 h, (10) 1 mM NaBr): 39.56+/−0.02
fluorescence (ex: 560 nm, em: 585 nm) ([1]; PBS pH 7.4, 37° C., 2 h, (11) 1 mM L-homocysteine): 74.32+/−5.27
fluorescence (ex: 560 nm, em: 585 nm) ([1]; PBS pH 7.4, 37° C., 2 h, (12) 100 mM Na2S): 46.97+/−1.47
fluorescence (ex: 560 nm, em: 585 nm) ([1]; PBS pH 7.4, 37° C., 2 h, (13) 1 mM sodium sulfate): 38.01+/−2.86
fluorescence (ex: 560 nm, em: 585 nm) ([1]; PBS pH 7.4, 37° C., 2 h, (14) 1 mM sodium thiosulfate): 1.72+/−0.22
fluorescence (ex: 560 nm, em: 585 nm) ([1]; PBS pH 7.4, 37° C., 2 h, (15) 1 mM sodium hypochlorite): 16.75+/−1.09
detection limit for H2O2 [2]: 1.5 µM
fluorescence in live HeLa cells pre-treated with paraquat (in words) (HeLa cells; 10 mM paraquat 4 h, then RAH2115 10 μM 1 hour): strong red fluorescence within cells
fluorescence in live HeLa cells, absence of paraquat (in words) (HeLa cells; RAH2115 10 μM, 1 hour, control without paraquat): no fluorescent cells were observed
